From ChEMBL document CHEMBL1201862, “PubChem BioAssay data set” (2004)
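In this assay, cells in 96-well plates receive the compound at five concentrations for 48 hours. Endpoints are linearly interpolated between the surrounding concentrations. Here, GI50 denotes the concentration required for 50% inhibition of growth.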 Calls of active or inactive are those of the source. Cut-off read from the data, not from the text of the source: active = GI50 up to about 1.1 µM and inactive = higher.

Key:
Experiment in all cases: NCI anticancer screen, dose series, 48 h
SR = tested on: SR
SN12C = tested on: SN12C
LXFL 529 = tested on: LXFL 529
SK-MEL-5 = tested on: SK-MEL-5
MOLT-4 = tested on: MOLT-4
CCRF-CEM = tested on: CCRF-CEM
M19-MEL = tested on: M19-MEL
UACC-62 = tested on: UACC-62
SK-MEL-2 = tested on: SK-MEL-2
NCI-H23 = tested on: NCI-H23
UACC-257 = tested on: UACC-257
DLD-1 = tested on: DLD-1
Malme-3M = tested on: Malme-3M
UO-31 = tested on: UO-31
EKVX = tested on: EKVX
SNB-19 = tested on: SNB-19
DMS-114 = tested on: DMS-114
XF498 = tested on: XF498
OVCAR-8 = tested on: OVCAR-8
TK-10 = tested on: TK-10
COLO 205 = tested on: COLO 205
HL-60 = tested on: HL-60
HT-29 = tested on: HT-29
K562 = tested on: K562
KM-20L2 = tested on: KM-20L2
A549 = tested on: A549
U-251 = tested on: U-251
OVCAR-4 = tested on: OVCAR-4
HOP-62 = tested on: HOP-62
RPMI-8226 = tested on: RPMI-8226
NCI-H226 = tested on: NCI-H226
SK-MEL-28 = tested on: SK-MEL-28
SF-295 = tested on: SF-295
A498 = tested on: A498
786-0 = tested on: 786-0
LOX IMVI = tested on: LOX IMVI
HCC 2998 = tested on: HCC 2998
RXF 631 = tested on: RXF 631
DMS-273 = tested on: DMS-273
RXF 393 = tested on: RXF 393
ACHN = tested on: ACHN
HCT-116 = tested on: HCT-116
NCI-H460 = tested on: NCI-H460
HCT-15 = tested on: HCT-15
OVCAR-3 = tested on: OVCAR-3
SF-539 = tested on: SF-539
IGROV-1 = tested on: IGROV-1
SF-268 = tested on: SF-268
SW-620 = tested on: SW-620
SNB-75 = tested on: SNB-75
M14 = tested on: M14
OVCAR-5 = tested on: OVCAR-5
HOP-92 = tested on: HOP-92
CAKI-1 = tested on: CAKI-1
SNB-78 = tested on: SNB-78
HOP-18 = tested on: HOP-18
KM12 = tested on: KM12
NCI-H522 = tested on: NCI-H522
SK-OV-3 = tested on: SK-OV-3

With `CCOC(=O)C1=C(C)N(c2ccc(C)cc2)C2=C(C(=O)N(c3ccccc3)C2c2ccccc2)C1c1ccccc1` (stereo not drawn) the GI50 (SR) was 17.7 µM (inactive), the GI50 (SN12C) was > 25 µM (inactive) and the GI50 (LXFL 529) was 20 µM (inactive). The GI50 (SK-MEL-5) was 16.5 µM (inactive), the GI50 (MOLT-4) was 7.82 µM (inactive) and the GI50 (CCRF-CEM) was 20.8 µM (inactive). For the same compound, the GI50 (M19-MEL) was > 25 µM (inactive), the GI50 (UACC-62) was 17.2 µM (inactive) and the GI50 (SK-MEL-2) was > 25 µM (inactive). For the same compound, the GI50 (NCI-H23) was 11.9 µM (inactive), the GI50 (UACC-257) was > 25 µM (inactive) and the GI50 (DLD-1) was 12.3 µM (inactive). The GI50 (Malme-3M) was > 25 µM (inactive), the GI50 (UO-31) was 21 µM (inactive) and the GI50 (EKVX) was > 25 µM (inactive). The GI50 (SNB-19) was > 25 µM (inactive), the GI50 (DMS-114) was 17.9 µM (inactive) and the GI50 (XF498) was > 25 µM (inactive). For the same compound, the GI50 (OVCAR-8) was > 25 µM (inactive), the GI50 (TK-10) was > 25 µM (inactive) and the GI50 (COLO 205) was > 25 µM (inactive). For the same compound, the GI50 (HL-60) was > 25 µM (inactive), the GI50 (HT-29) was > 25 µM (inactive) and the GI50 (K562) was 19.8 µM (inactive). For the same compound, the GI50 (KM-20L2) was > 25 µM (inactive), the GI50 (A549) was 10.7 µM (inactive) and the GI50 (U-251) was > 25 µM (inactive). The GI50 (OVCAR-4) was 11.3 µM (inactive), the GI50 (HOP-62) was > 25 µM (inactive) and the GI50 (RPMI-8226) was 14 µM (inactive). The GI50 (NCI-H226) was > 25 µM (inactive), the GI50 (SK-MEL-28) was > 25 µM (inactive) and the GI50 (SF-295) was 22.2 µM (inactive). For the same compound, the GI50 (A498) was > 25 µM (inactive), the GI50 (786-0) was > 25 µM (inactive) and the GI50 (LOX IMVI) was > 25 µM (inactive). For the same compound, the GI50 (HCC 2998) was 18.4 µM (inactive), the GI50 (RXF 631) was > 25 µM (inactive) and the GI50 (DMS-273) was > 25 µM (inactive). The GI50 (RXF 393) was 0.558 µM (active), the GI50 (ACHN) was 16.6 µM (inactive) and the GI50 (HCT-116) was 17.6 µM (inactive). For the same compound, the GI50 (NCI-H460) was 13.3 µM (inactive), the GI50 (HCT-15) was greater than 25 µM and the GI50 (OVCAR-3) was > 25 µM (inactive). The GI50 (SF-539) was > 25 µM (inactive), the GI50 (IGROV-1) was > 25 µM (inactive) and the GI50 (SF-268) was > 25 µM (inactive). The GI50 (SW-620) was > 25 µM (inactive), the GI50 (SNB-75) was 1.51 µM (inactive) and the GI50 (M14) was > 25 µM (inactive).
With `CC(=O)N1[C@H](C(=O)O)CS[C@H]1c1ccc(F)cc1` the GI50 (SR) was > 100 µM (inactive), the GI50 (SN12C) was > 100 µM (inactive) and the GI50 (LXFL 529) was > 100 µM (inactive). The GI50 (SK-MEL-5) was > 100 µM (inactive), the GI50 (MOLT-4) was > 100 µM (inactive) and the GI50 (CCRF-CEM) was > 100 µM (inactive). The GI50 (M19-MEL) was > 100 µM (inactive), the GI50 (NCI-H23) was > 100 µM (inactive) and the GI50 (UACC-257) was > 100 µM (inactive). For the same compound, the GI50 (Malme-3M) was > 100 µM (inactive), the GI50 (UO-31) was > 100 µM (inactive) and the GI50 (OVCAR-5) was > 100 µM (inactive). The GI50 (SNB-19) was > 100 µM (inactive), the GI50 (DMS-114) was > 100 µM (inactive) and the GI50 (OVCAR-8) was > 100 µM (inactive). The GI50 (HOP-92) was > 100 µM (inactive), the GI50 (TK-10) was > 100 µM (inactive) and the GI50 (CAKI-1) was > 100 µM (inactive). For the same compound, the GI50 (COLO 205) was > 100 µM (inactive), the GI50 (HL-60) was > 100 µM (inactive) and the GI50 (HT-29) was > 100 µM (inactive). The GI50 (K562) was > 100 µM (inactive), the GI50 (A549) was > 100 µM (inactive) and the GI50 (OVCAR-4) was > 100 µM (inactive). For the same compound, the GI50 (HOP-62) was > 100 µM (inactive), the GI50 (NCI-H226) was > 100 µM (inactive) and the GI50 (SK-MEL-28) was > 100 µM (inactive). For the same compound, the GI50 (SF-295) was > 100 µM (inactive), the GI50 (A498) was > 100 µM (inactive) and the GI50 (786-0) was > 100 µM (inactive). The GI50 (LOX IMVI) was > 100 µM (inactive), the GI50 (HCC 2998) was > 100 µM (inactive) and the GI50 (SNB-78) was > 100 µM (inactive). For the same compound, the GI50 (RXF 631) was > 100 µM (inactive), the GI50 (RXF 393) was > 100 µM (inactive) and the GI50 (ACHN) was > 100 µM (inactive). For the same compound, the GI50 (HCT-116) was 29.1 µM (inactive), the GI50 (NCI-H460) was > 100 µM (inactive) and the GI50 (HCT-15) was greater than 100 µM. The GI50 (OVCAR-3) was > 100 µM (inactive), the GI50 (SF-539) was > 100 µM (inactive) and the GI50 (IGROV-1) was > 100 µM (inactive). The GI50 (HOP-18) was > 100 µM (inactive), the GI50 (SF-268) was > 100 µM (inactive) and the GI50 (SW-620) was > 100 µM (inactive). The GI50 (SNB-75) was > 100 µM (inactive) and the GI50 (M14) was > 100 µM (inactive).
`CC1CC(c2ccccc2)=Nc2ccccc2S1` (stereo not drawn) was tested, and the GI50 (SR) was > 100 µM (inactive), the GI50 (SN12C) was > 100 µM (inactive) and the GI50 (LXFL 529) was > 100 µM (inactive). The GI50 (SK-MEL-5) was > 100 µM (inactive), the GI50 (MOLT-4) was 77.8 µM (inactive) and the GI50 (CCRF-CEM) was 34.7 µM (inactive). The GI50 (M19-MEL) was 97.3 µM (inactive), the GI50 (UACC-62) was > 100 µM (inactive) and the GI50 (SK-MEL-2) was > 100 µM (inactive). The GI50 (NCI-H23) was > 100 µM (inactive), the GI50 (UACC-257) was > 100 µM (inactive) and the GI50 (DLD-1) was > 100 µM (inactive). For the same compound, the GI50 (UO-31) was > 100 µM (inactive), the GI50 (EKVX) was 72.8 µM (inactive) and the GI50 (KM12) was > 100 µM (inactive). For the same compound, the GI50 (OVCAR-5) was > 100 µM (inactive), the GI50 (SNB-19) was > 100 µM (inactive) and the GI50 (DMS-114) was > 100 µM (inactive). The GI50 (XF498) was > 100 µM (inactive), the GI50 (OVCAR-8) was > 100 µM (inactive) and the GI50 (HOP-92) was > 100 µM (inactive). The GI50 (NCI-H522) was 41.9 µM (inactive), the GI50 (TK-10) was > 100 µM (inactive) and the GI50 (CAKI-1) was > 100 µM (inactive). The GI50 (COLO 205) was > 100 µM (inactive), the GI50 (HL-60) was 58.9 µM (inactive) and the GI50 (HT-29) was > 100 µM (inactive). The GI50 (K562) was 79.4 µM (inactive), the GI50 (KM-20L2) was > 100 µM (inactive) and the GI50 (A549) was > 100 µM (inactive). The GI50 (U-251) was 44.1 µM (inactive), the GI50 (OVCAR-4) was > 100 µM (inactive) and the GI50 (HOP-62) was > 100 µM (inactive). For the same compound, the GI50 (RPMI-8226) was 68.5 µM (inactive), the GI50 (NCI-H226) was > 100 µM (inactive) and the GI50 (SK-MEL-28) was > 100 µM (inactive). For the same compound, the GI50 (SF-295) was > 100 µM (inactive), the GI50 (A498) was > 100 µM (inactive) and the GI50 (LOX IMVI) was 84.7 µM (inactive). The GI50 (HCC 2998) was > 100 µM (inactive), the GI50 (SNB-78) was > 100 µM (inactive) and the GI50 (RXF 631) was > 100 µM (inactive). For the same compound, the GI50 (DMS-273) was > 100 µM (inactive), the GI50 (RXF 393) was > 100 µM (inactive) and the GI50 (SK-OV-3) was > 100 µM (inactive). For the same compound, the GI50 (ACHN) was > 100 µM (inactive), the GI50 (HCT-116) was > 100 µM (inactive) and the GI50 (NCI-H460) was > 100 µM (inactive). The GI50 (HCT-15) was greater than 100 µM, the GI50 (SF-539) was > 100 µM (inactive) and the GI50 (IGROV-1) was > 100 µM (inactive). For the same compound, the GI50 (SF-268) was > 100 µM (inactive), the GI50 (SW-620) was > 100 µM (inactive) and the GI50 (SNB-75) was > 100 µM (inactive). The GI50 (M14) was > 100 µM (inactive).
